According to US20070135515A1, “Method for producing sorbicillactone a” (priority 2004, published 2007):

What was measured:
[1] = test system: L5178Y-mouse lymphoma cells (ATCC CRL 1722); experiment: Apoptosis detection (Cell Death Detection ELISA plus); format: cell-based; details: for MW ± SD (OD) / % of the control (negative): 4 hours incubation; for MW ± SD (OD): 405 nm; for % of the control (negative): negative control = 100%
Experimental: Material: RPMI1640-medium, Hepes buffered, was obtained from Sigma-Aldrich (Taufkirchen, Germany), foetal calf serum (FCS) from Gibco (Karlsruhe, Germany), and Cell Death Detection ELISA plus from Roche (Mannheim, Germany, Cat. No. 1774425). Sorbicillactone A of the batch: 2208/2a was used.
Incubation and preparation of the cells: The L5178Y-mouse lymphoma cells (ATCC CRL 1722)) were counted, and adjusted to a number of cells of 10^4 cells/mL. The sorbicillactone-A- and dihydrosorbicillactone-A-stock solution (10 mg/mL in DMSO) was diluted with medium (RPMI/Hepes with 10% FCS) to concentrations of 60, 20, and 6 μg/mL. In a 96-well-culture plate, 100 μl cell suspension (˜10^3 cells) were each pipetted to each of the 100 μl of the different dihydrosorbicillactone-A- and sorbicillactone-A-solutions. RPMI1640-medium without dihydrosorbicillactone and sorbicillactone A was used as a negative control. The final concentrations were 30, 10, and 3 μg/mL sorbicillactone A and dihydrosorbicillactone A. Four parallel settings of each sample were analysed. The cells were incubated for 4 hours at 37° C. After the incubation, the culture plate was centrifuged at […] (˜1200 rpm) for 10 min at room temperature. The supernatant was carefully pipetted off, and the cells were each overlayered with 200 μl lysis-buffer (Roche-Kit). Then, the cells were lysed for 30 min at room temperature. After the lysis, the culture plate was again centrifuged at 200×g (˜1200 rpm) for 10 min at room temperature.
ELISA: Two strips with eight wells each were taken from the streptavidin-ELISA-plate of the Roche-kit. 20 μl of the supernatant of a cell-lysis (see above) were added into each well. In doing so, the samples with 30 or 10 μg/mL of sorbicillactone A and dihydrosorbicillactone A were loaded as 4-fold, and all other as duplicate determinations. In addition to these sample, a positive control (DNA-histone-complex) was loaded. Then, 80 μl of immune reagent were added into each well. This solution consisted of incubation buffer, anti-histone-biotin, and anti-DNA-peroxidase. The incubation buffer was used as a blank value. The ELISA-plate was incubated for 2 hours in a shaking incubator at room temperature. Them the supernatants were carefully removed, and the wells were each washed 3× with 250 μl of the incubation buffer. After the washing, 100 μl of ABTS-solution were added into each “well”. Subsequently, the cells were incubated for 30 min in the dark at room temperature. The measurement took place in a multiscan at an emission wavelength of 405 nm.

[2] = test system: L5178Y mouse-lymphoma cells (ATCC CRL 1722); experiment: Genotoxicity: Fast Microassay (strand scission factors, PicoGreen); format: cell-based
Experimental: Material: PicoGreen was obtained from Molecular Probes (Leiden, The Netherlands), RPMI1640-medium from Sigma-Aldrich (Taufkirchen, Germany), foetal calf serum (FKS) from Gibco (Karlsruhe, Germany), and black microtitre-plates (96-well-plates) from Nunc (Wiesbaden, Germany). Sorbicillactone A of the batch: 2208/2a was used.
Cells: The genotoxicity of sorbicillactone A was tested on L5178Y mouse-lymphoma cells (ATCC CRL 1722). As described (Müller et al., 1979, Cancer Res. 39:1102-1107), the cells were cultured in RPMI1640-medium supplemented with 10% foetal calf serum (FCS). 10^4 cells/mL were chosen as the inoculum concentration. The cells were incubated for 4 and 24 hours with 1, 3, 10, and 30 μg/mL of sorbicillactone A (1). Following the incubation, the cells were examined with the “Fast Microassay”.
“Fast Microassay”: The method was performed according to a modified method (Batel et al., 1999, Anal. Biochem., 270:195-200). The cells were washed with 1×PBS for two times. After centrifugation, the pellet was taken up in 1×PBS and diluted to […]. 25 μl each of the cell suspension (about 2.5×10^4 cells per well) were pre-pipetted into black microtitre-plates (96-well-plates, Nunc, Wiesbaden). 25 μl 1×PBS were in the controls. Then, 25 μl of lysis solution (7 M urea, 0.1% (w/v) SDS, 0.2 M EDTA, pH=10.0) with PicoGreen (20 μl conc. PicoGreen per 1 mL of lysis solution) were pipetted into the microtitre-plate. Subsequently, the cells were lysed for 40 min in the dark at room temperature. After the incubation, the denaturation (unwinding) of the DNA occurs by the addition of freshly prepared alkaline solution. This is produced in that 20 mL 20 mM of EDTA, and 32 mL of 20 mM EDTA/100 mM NaOH are adjusted to a pH-value of 12.3. The measurement took place immediately in a fluoroscan at an excitation wavelength of 485 nm, and an emission wavelength of 520 nm, every 3 to 5 min, 20 min in total. The results were given as “strand scission factors” (SSF), and calculated following a time of denaturation (time of unwinding) of 20 min according to the following equation: SSF=log (% dsDNA-sample/% dsDNA-control).

C/C=C/C=C/C(O)=C1/C(=O)C(C)=C(O)[C@@]2(C)OC(=O)[C@@](C)(NC(=O)/C=C/C(=O)O)[C@@H]12 [sorbicillactone A]
MW ± SD (OD) ([1]; 3 μg/mL): 0.062 ± 0.004 OD | % of the control (negative) ([1]; 3 μg/mL): 91.2% | increase of apoptosis-cells ([1]; 3 μg/mL, 4 hours of incubation): did not result in an increase of apoptosis-cells | MW ± SD (OD) ([1]; 10 μg/mL): 0.193 ± 0.010 OD | % of the control (negative) ([1]; 10 μg/mL): 283.8% | MW ± SD (OD) ([1]; 30 μg/mL): 0.219 ± 0.024 OD | % of the control (negative) ([1]; 30 μg/mL): 322.1% | induction of apoptosis ([1]; 10 and 30 μg/mL, 4 hours of incubation): induces apoptosis | induction of DNA-strand scissions ([2]; 30 μg/mL, 24 hours of incubation): induced DNA-strand scissions | effect on the SSF-values (strand scission factors) ([2]; 1, 3, 10, and 30 μg/mL, 4 hours of incubation, FIG. 3A): nearly no effect | increase of the SSF-values ([2]; 1 to 10 μg/mL, 24 hours): slight, but no significant, increase | increase of the SSF-values (portion of DNA-strand scissions) ([2]; 3 and 30 μg/mL, 24 hours, p<0.001, FIG. 3B): significant increase
